PubChem BioAssay AID1963972 (Molecular Pharmacology Branch, DTP, NCI, 2024)
One block for each molecule: values may come before it.

Tested on: 945468-187-T-J2-PDC spheroids viability
Assay: Anticancer human tumor 945468-187-T-J2-PDC patient-derived rectal carcinoma cell line growth inhibition [PI3K]
Conditions: spheroids with HUVEC and MSC; for IC50: curve of first compound; for viability, T/C: stronger effect = lower value
Summary of the method: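 Targeted small molecules plus PI3K inhibitors, half-log dose series from Cmax (default top 10 microM), were applied to heterotypic spheroids of cancer cells with HUVEC and MSCs. Viability indicated growth inhibition.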

[1] = second compound 0.0316 µM, first compound 0.0316 µM
[2] = second compound 0.0316 µM, first compound 0.1 µM
[3] = second compound 0.0316 µM, first compound 0.316 µM
[4] = second compound 0.0316 µM, first compound 1 µM
[5] = second compound 0.0316 µM, first compound 3.16 µM
[6] = second compound 0.0316 µM, first compound 10 µM
[7] = second compound 0.1 µM, first compound 0.0316 µM
[8] = second compound 0.1 µM, first compound 0.1 µM
[9] = second compound 0.1 µM, first compound 0.316 µM
[10] = second compound 0.1 µM, first compound 1 µM
[11] = second compound 0.1 µM, first compound 3.16 µM
[12] = second compound 0.1 µM, first compound 10 µM
[13] = second compound 0.316 µM, first compound 0.0316 µM
[14] = second compound 0.316 µM, first compound 0.1 µM
[15] = second compound 0.316 µM, first compound 0.316 µM
[16] = second compound 0.316 µM, first compound 1 µM
[17] = second compound 0.316 µM, first compound 3.16 µM
[18] = second compound 0.316 µM, first compound 10 µM
[19] = second compound 1 µM, first compound 0.0316 µM
[20] = second compound 1 µM, first compound 0.1 µM
[21] = second compound 1 µM, first compound 0.316 µM
[22] = second compound 1 µM, first compound 1 µM
[23] = second compound 1 µM, first compound 3.16 µM
[24] = second compound 1 µM, first compound 10 µM
[25] = second compound 3.16 µM, first compound 0.0316 µM
[26] = second compound 3.16 µM, first compound 0.1 µM
[27] = second compound 3.16 µM, first compound 0.316 µM
[28] = second compound 3.16 µM, first compound 1 µM
[29] = second compound 10 µM, first compound 0.0316 µM
[30] = second compound 10 µM, first compound 0.1 µM
[31] = second compound 10 µM, first compound 0.316 µM
[32] = second compound 10 µM, first compound 1 µM
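Note: spheroids exposed to compounds for seven days before reading.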

IC50 (second compound 0.0316 µM): > 10 µM
IC50 (second compound 0.1 µM): > 10 µM
IC50 (second compound 0.316 µM): > 10 µM
IC50 (second compound 1 µM): > 10 µM
IC50 (second compound 3.16 µM): > 10 µM
IC50 (second compound 10 µM): > 10 µM
SMILES: C=CC(=O)N1CCN(c2nc(=O)n(-c3c(C)ccnc3C(C)C)c3nc(-c4c(O)cccc4F)c(F)cc23)C(C)C1 (stereo unspecified) + CC(Nc1ncnc2nc[nH]c12)c1cc2cccc(Cl)c2c(=O)n1-c1ccccc1
viability, T/C [1]: 103%
viability, T/C [2]: 124%
viability, T/C [3]: 100%
viability, T/C [4]: 114%
viability, T/C [5]: 111%
viability, T/C [6]: 95.8%
viability, T/C [7]: 97.5%
viability, T/C [8]: 82.7%
viability, T/C [9]: 91.5%
viability, T/C [10]: 85.2%
viability, T/C [11]: 93%
viability, T/C [12]: 136%
viability, T/C [13]: 109%
viability, T/C [14]: 114%
viability, T/C [15]: 96.3%
viability, T/C [16]: 105%
viability, T/C [17]: 106%
viability, T/C [18]: 84.7%
viability, T/C [19]: 87.6%
viability, T/C [20]: 98.8%
viability, T/C [21]: 113%
viability, T/C [22]: 104%
viability, T/C [23]: 107%
viability, T/C [24]: 89.3%
viability, T/C [25]: 94.6%
viability, T/C [26]: 106%
viability, T/C [27]: 104%
viability, T/C [28]: 97.8%
viability, T/C (second compound 3.16 µM, first compound 3.16 µM): 99.6%
viability, T/C (second compound 3.16 µM, first compound 10 µM): 104%
viability, T/C [29]: 124%
viability, T/C [30]: 122%
viability, T/C [31]: 116%
viability, T/C [32]: 123%
viability, T/C (second compound 10 µM, first compound 3.16 µM): 92.4%
viability, T/C (second compound 10 µM, first compound 10 µM): 90.4%

IC50 (second compound 0.0316 µM): > 1 µM
IC50 (second compound 0.1 µM): > 1 µM
IC50 (second compound 0.316 µM): > 1 µM
IC50 (second compound 1 µM): > 1 µM
IC50 (second compound 3.16 µM): > 1 µM
IC50 (second compound 10 µM): > 1 µM
SMILES: CCN1CCN(Cc2ccc(Nc3ncc(F)c(-c4cc(F)c5nc(C)n(C(C)C)c5c4)n3)nc2)CC1 + CC(Nc1ncnc2nc[nH]c12)c1cc2cccc(Cl)c2c(=O)n1-c1ccccc1
viability, T/C (second compound 0.0316 µM, first compound 0.00316 µM): 91.3%
viability, T/C (second compound 0.0316 µM, first compound 0.01 µM): 103%
viability, T/C [1]: 98.8%
viability, T/C [2]: 92.9%
viability, T/C [3]: 100%
viability, T/C [4]: 79.7%
viability, T/C (second compound 0.1 µM, first compound 0.00316 µM): 93.5%
viability, T/C (second compound 0.1 µM, first compound 0.01 µM): 122%
viability, T/C [7]: 118%
viability, T/C [8]: 89.5%
viability, T/C [9]: 84.2%
viability, T/C [10]: 71.6%
viability, T/C (second compound 0.316 µM, first compound 0.00316 µM): 83.9%
viability, T/C (second compound 0.316 µM, first compound 0.01 µM): 76.9%
viability, T/C [13]: 86%
viability, T/C [14]: 84.1%
viability, T/C [15]: 95.8%
viability, T/C [16]: 67%
viability, T/C (second compound 1 µM, first compound 0.00316 µM): 120%
viability, T/C (second compound 1 µM, first compound 0.01 µM): 98%
viability, T/C [19]: 85.4%
viability, T/C [20]: 87.8%
viability, T/C [21]: 88.7%
viability, T/C [22]: 74.2%
viability, T/C (second compound 3.16 µM, first compound 0.00316 µM): 90.8%
viability, T/C (second compound 3.16 µM, first compound 0.01 µM): 98.8%
viability, T/C [25]: 94.2%
viability, T/C [26]: 87.2%
viability, T/C [27]: 77.8%
viability, T/C [28]: 59.5%
viability, T/C (second compound 10 µM, first compound 0.00316 µM): 81.5%
viability, T/C (second compound 10 µM, first compound 0.01 µM): 76.4%
viability, T/C [29]: 104%
viability, T/C [30]: 98.8%
viability, T/C [31]: 95%
viability, T/C [32]: 53.6%

IC50 (second compound 0.00316 µM): > 10 µM
IC50 (second compound 0.01 µM): > 10 µM
IC50 (second compound 0.0316 µM): > 10 µM
IC50 (second compound 0.1 µM): > 10 µM
IC50 (second compound 0.316 µM): < 0.0316 µM
IC50 (second compound 1 µM): < 0.0316 µM
SMILES: C[C@@H](NC(=O)c1ncnc(N)c1Cl)c1ncc(C(=O)Nc2cc(C(F)(F)F)c(Cl)cn2)s1 + COc1c(OCCCN2CCOCC2)ccc2c3n(c(=NC(=O)c4cnc(N)nc4)nc12)CCN3
viability, T/C (second compound 0.00316 µM, first compound 0.0316 µM): 109%
viability, T/C (second compound 0.00316 µM, first compound 0.1 µM): 115%
viability, T/C (second compound 0.00316 µM, first compound 0.316 µM): 116%
viability, T/C (second compound 0.00316 µM, first compound 1 µM): 113%
viability, T/C (second compound 0.00316 µM, first compound 3.16 µM): 99.3%
viability, T/C (second compound 0.00316 µM, first compound 10 µM): 102%
viability, T/C (second compound 0.01 µM, first compound 0.0316 µM): 133%
viability, T/C (second compound 0.01 µM, first compound 0.1 µM): 119%
viability, T/C (second compound 0.01 µM, first compound 0.316 µM): 126%
viability, T/C (second compound 0.01 µM, first compound 1 µM): 119%
viability, T/C (second compound 0.01 µM, first compound 3.16 µM): 112%
viability, T/C (second compound 0.01 µM, first compound 10 µM): 125%
viability, T/C [1]: 108%
viability, T/C [2]: 94.6%
viability, T/C [3]: 111%
viability, T/C [4]: 142%
viability, T/C [5]: 96%
viability, T/C [6]: 122%
viability, T/C [7]: 94%
viability, T/C [8]: 102%
viability, T/C [9]: 94.9%
viability, T/C [10]: 95%
viability, T/C [11]: 92.7%
viability, T/C [12]: 92%
viability, T/C [13]: 46%
viability, T/C [14]: 49.3%
viability, T/C [15]: 50.9%
viability, T/C [16]: 57.7%
viability, T/C [17]: 53.5%
viability, T/C [18]: 63.9%
viability, T/C [19]: 24.4%
viability, T/C [20]: 26.1%
viability, T/C [21]: 25.6%
viability, T/C [22]: 22%
viability, T/C [23]: 23.5%
viability, T/C [24]: 26.8%
